Assay results published in publication PMC4456360, “A Recombinant Fungal Lectin for Labeling Truncated Glycans on Human Cancer Cells” (PLoS ONE, 2015).
“And” between values parts separate entries of the source, which are not always exact repeats. Equal values may be shown once. Marks after values point to notes of the source that are not given here.

Experiments:
rPVL [1] = biological target: T1, rPVL (Lacrymaria velutina (Psathyrella velutina), UniProt Q309D1); assay: Titration microcalorimetry (ITC), rPVL in solution; assay type: binding; settings: for ITC -∆H / ITC T∆S / Kd / ITC n (number of binding sites per monomer): 25°C; for Kd: rPVL in solution; for ITC n: stoichiometry value fixed during fitting procedure
T1 sequence (Q309D1 1-395): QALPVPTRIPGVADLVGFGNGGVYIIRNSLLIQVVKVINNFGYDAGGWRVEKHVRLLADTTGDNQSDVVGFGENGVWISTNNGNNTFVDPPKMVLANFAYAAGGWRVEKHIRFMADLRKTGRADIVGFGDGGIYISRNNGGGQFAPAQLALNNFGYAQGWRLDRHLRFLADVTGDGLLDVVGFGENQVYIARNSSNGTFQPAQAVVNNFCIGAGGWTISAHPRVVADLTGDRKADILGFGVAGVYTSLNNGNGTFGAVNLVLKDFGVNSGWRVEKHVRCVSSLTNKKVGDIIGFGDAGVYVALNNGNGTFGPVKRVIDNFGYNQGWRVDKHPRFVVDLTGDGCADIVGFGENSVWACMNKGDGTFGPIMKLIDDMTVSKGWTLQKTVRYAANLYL
Method: Recombinant lyophilized rPVL was dissolved in buffer (20 mM Tris/HCl, pH 7.5, NaCl 150 mM, 100 μM CaCl2) and degassed. The protein concentration was checked by measuring A280 by using a theoretical molar extinction coefficient of 65,890 M^-1 cm^-1. Carbohydrate ligands were dissolved in the same buffer, degassed, and loaded in the injection syringe. ITC was performed with a ITC200 microcalorimeter (GE Healthcare). The rPVL solution was placed in a 200 μl sample cell at 25°C. Titration was performed with 20 injections of 2 μl carbohydrate ligands every 120 s. The experimental data were fitted to a theoretical titration curve using Origin software supplied by GE Healthcare, with ΔH (enthalpy change), Ka (association constant) and n (number of binding sites per monomer) as adjustable parameters. Free energy change (ΔG) and entropy contributions (TΔS) were derived from the equation ΔG = ΔH – TΔS = —RT ln Ka (with T as the absolute temperature and R = 8.314 J mol^-1 K^-1). Two independent titrations were performed for each tested ligand.

rPVL [2] = biological target: T1, rPVL; assay: Surface plasmon resonance, oligosaccharides injected over rPVL-coated CM5 chip; assay type: binding; settings: 25°C, rPVL immobilized on chip; for Kd: read-out: SPR Kd
Method: All SPR experiments were performed on a Biacore X100 instrument (GE Healthcare) at 25°C in HBS (10 mM Hepes/NaOH, pH 7.5, 150 mM NaCl, 0.05% Tween 20) supplemented with 100 μM of CaCl2 at a flow rate of 30 μl min^-1. Binding was measured as resonance units over time after blank subtraction, and data were then evaluated by using the Biacore X100 evaluation software, version 2.0. Dissociation constants were determined by plotting response at equilibrium (Req, 10 s before the end of injection) against analyte concentration. For protein coated chip, 3500 resonance units of rPVL (100 μg ml^-1, 10 mM acetate buffer pH 6.2) have been immobilized on flow channel 2 of a research grade CM5 chip using standard amine coupling procedures. Flow channel 1 has been activated/deactivated. Experiments consist of injection (association 360 s, dissociation 400 s) of various concentrations of oligosaccharides (2 fold cascade dilutions, from 0 to 10 μM) on both channels.

rPVL [3] = biological target: T1, rPVL; assay: Thermal shift analysis of rPVL with glycan ligands; assay type: binding
Method: Thermal shift assays were performed using a Mini Opticon, Real Time PCR machine (Bio-Rad Laboratories) with 0.5 mg ml^-1 of protein diluted in 100 mM NaCl, 20 mM Tris pH 7.5, 100 μM CaCl2, with or without oligosaccharide in a total reaction volume of 25 μl. SYPRO Orange (Molecular Probes, CA) was used as a fluorescent probe detected at 530 nm. The temperature was raised using 1°C/minute steps from 25°C to 100°C and fluorescence readings were taken at each interval. […] A minimum of two independent measurements were performed for each condition

rPVL [4] = biological target: T1, rPVL; assay: Glycan array (CFG Mammalian Printed Array version 5.1); assay type: binding; settings: Alexa Fluor 488 labeled rPVL
From the text: Purified rPVL were labeled with Alexa Fluor 488 (Invitrogen) according to the manufacturer’s instructions and repurified on a D-Salt polyacrylamide desalting column (Pierce). Alexa-labeled rPVL was used for glycan array screening with the standard procedure of the Protein-Glycan Interaction Core (H) of the Consortium for Functional Glycomics.

native PVL = biological target: native PVL; design: method as in PMID 16497330; settings: ITC, native PVL isolated from mushroom; cited from earlier work

Row | Molecule | ITC -∆H (rPVL [1]) [kcal/mol] | ITC T∆S (rPVL [1]) [kcal/mol] | Kd (rPVL [1]) | Kd (rPVL [2]) [µM] | other results
1 | CC(=O)N[C@H]1[C@H](O[C@H]2[C@H](O)[C@@H](NC(C)=O)C(O)O[C@@H]2CO)O[C@H](CO)[C@@H](O)[C@@H]1O (some centres unmarked) [GlcNAcβ1-4GlcNAc] | 8.82 | -3.49 | 122 µM | 205 | ITC n (rPVL [1]): 5.0 ^b; Tm of rPVL in the presence of ligand (rPVL [3]): 60 °C; binding of rPVL on glycan array (in words) (rPVL [4]): only weakly
2 | Galβ1-3GlcNAcβ1-3Galβ1-4Glc [Galβ1-3GlcNAcβ1-3Galβ1-4Glc (LNT)] |  |  |  |  | SPR Kd (rPVL [2]): No binding
3 | OC[C@H]1O[C@@](CO)(O[C@H]2O[C@H](CO)[C@@H](O)[C@H](O)[C@H]2O)[C@@H](O)[C@@H]1O [sucrose] |  |  |  |  | stabilization of rPVL by carbohydrate (in words) (rPVL [3]): non-binding
4 | CC(=O)N[C@H]1[C@H](O[C@H]2[C@@H](O)[C@@H](CO)O[C@@H](O[C@H]3[C@H](O)[C@@H](O)C(O)O[C@@H]3CO)[C@@H]2O)O[C@H](CO)[C@@H](O)[C@@H]1O (some centres unmarked) [GlcNAcβ1-3Galβ1-4Glc (LNT2), GlcNAcβ1-3Galβ1-4Glc] | 9.97 | -4.57 | 108 µM | 71 | ITC n (number of binding sites per monomer) (rPVL [1]): 5.0 ± 0.2; Kd (rPVL [2]; listed as lacto-N-triose): ~70 µM
5 | CC(=O)N[C@@H]1[C@@H](O)[C@H](O[C@@H]2O[C@H](CO)[C@@H](O[C@@H]3O[C@H](CO[C@H]4O[C@H](CO)[C@@H](O)[C@H](O)[C@@H]4O[C@@H]4O[C@H](CO)[C@@H](O)[C@H](O)[C@H]4NC(C)=O)[C@@H](O)[C@H](O[C@H]4O[C@H](CO)[C@@H](O)[C@H](O)[C@@H]4O[C@@H]4O[C@H](CO)[C@@H](O)[C@H](O)[C@H]4NC(C)=O)[C@@H]3O)[C@H](O)[C@H]2NC(C)=O)[C@@H](CO)O[C@H]1N=[N+]=[N-] [Biantennary N-glycan (2)] | 3.27 | 2.82 | 34 µM and 34.4 µM | 179 | ITC n (number of binding sites per monomer) (rPVL [1]): 1.9 ± 0.6; ITC n (number of binding sites per monomer) (rPVL [1]; listed as biantennary heptasaccharide): two
6 | CC(=O)N[C@H]1[C@H](O[C@H]2[C@H](O)[C@@H](NC(C)=O)[C@H](O[C@H]3[C@H](O)[C@@H](NC(C)=O)C(O)O[C@@H]3CO)O[C@@H]2CO)O[C@H](CO)[C@@H](O[C@@H]2O[C@H](CO)[C@@H](O[C@@H]3O[C@H](CO)[C@@H](O)[C@H](O)[C@H]3NC(C)=O)[C@H](O)[C@H]2NC(C)=O)[C@@H]1O (stereo partly drawn) [GlcNAc(β1-4GlcNAc)4, GlcNAcβ1-4GlcNAcβ1-4GlcNAcβ1-4GlcNAcβ1-4GlcNAc] |  |  |  | 358 | 
7 | O=C[C@H](O)[C@@H](O)[C@@H](O)[C@H](O)CO [galactose] |  |  |  |  | stabilization of rPVL by carbohydrate (in words) (rPVL [3]): non-binding
8 | CC(=O)N[C@H]1[C@H](O[C@H]2[C@@H](O)[C@@H](CO)OC(O)[C@@H]2NC(C)=O)O[C@H](CO)[C@H](O)[C@@H]1O (some centres unmarked) [GalNAcβ1-3GalNAc] |  |  |  |  | binding of rPVL on glycan array (in words) (rPVL [4]): minor intensity
9 | CC(=O)N[C@H]1[C@H](O[C@H]2[C@@H](O)[C@@H](CO)OC(O)[C@@H]2O)O[C@H](CO)[C@@H](O)[C@@H]1O (some centres unmarked) [GlcNAcβ1-3Gal] | 10.1 | -4.66 | 110 µM | 103 | Tm of rPVL in the presence of ligand (rPVL [3]): 60 °C
10 | CC(=O)N[C@@H]1[C@@H](O)[C@H](O)[C@@H](CO)O[C@H]1O [GlcNAc, N-acetylglucosamine] | 9.85 | -4.3 | 124 µM | 132 | ITC n (rPVL [1]): 5.0 ^b; Kd (native PVL): ~200 µM
